According to ChEMBL document CHEMBL3991601, “The target landscape of clinical kinase drugs” (Science, 2017):
Activity calls are given as the source filed them.

Key:
[1] = molecular target: Deoxycytidine kinase (Homo sapiens, UniProt P27707)
[2] = molecular target: T1, Ribosyldihydronicotinamide dehydrogenase [quinone] (Homo sapiens, UniProt P16083)
T1 sequence (P16083 whole entry): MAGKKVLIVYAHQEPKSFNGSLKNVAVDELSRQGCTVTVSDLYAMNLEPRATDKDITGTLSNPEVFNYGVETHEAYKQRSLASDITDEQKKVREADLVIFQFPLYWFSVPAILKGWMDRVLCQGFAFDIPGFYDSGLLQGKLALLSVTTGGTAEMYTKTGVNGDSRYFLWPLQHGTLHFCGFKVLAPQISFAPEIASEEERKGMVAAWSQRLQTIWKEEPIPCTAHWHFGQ

[3] = molecular target: T2, NUAK family SNF1-like kinase 2 (Homo sapiens, UniProt Q9H093)
T2 sequence (Q9H093 whole entry): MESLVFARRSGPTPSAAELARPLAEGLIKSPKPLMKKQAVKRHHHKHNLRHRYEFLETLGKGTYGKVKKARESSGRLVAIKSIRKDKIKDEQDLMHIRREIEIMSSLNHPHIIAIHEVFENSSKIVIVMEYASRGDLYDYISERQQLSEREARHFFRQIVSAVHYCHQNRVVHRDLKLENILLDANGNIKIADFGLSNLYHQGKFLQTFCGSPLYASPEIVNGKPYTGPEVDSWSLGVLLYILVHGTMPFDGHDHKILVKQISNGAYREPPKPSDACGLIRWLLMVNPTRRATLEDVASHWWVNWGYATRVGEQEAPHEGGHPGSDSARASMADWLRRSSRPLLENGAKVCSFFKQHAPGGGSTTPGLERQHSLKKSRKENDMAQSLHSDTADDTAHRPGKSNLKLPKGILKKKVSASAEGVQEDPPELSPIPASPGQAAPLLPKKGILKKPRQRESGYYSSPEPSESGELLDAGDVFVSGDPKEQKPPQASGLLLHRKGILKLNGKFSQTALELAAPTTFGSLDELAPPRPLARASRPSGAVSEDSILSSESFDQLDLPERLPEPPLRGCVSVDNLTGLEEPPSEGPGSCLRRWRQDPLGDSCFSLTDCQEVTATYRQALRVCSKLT

[4] = molecular target: T3, Serine/threonine-protein kinase PLK4 (Homo sapiens, UniProt O00444)
T3 sequence (O00444 whole entry): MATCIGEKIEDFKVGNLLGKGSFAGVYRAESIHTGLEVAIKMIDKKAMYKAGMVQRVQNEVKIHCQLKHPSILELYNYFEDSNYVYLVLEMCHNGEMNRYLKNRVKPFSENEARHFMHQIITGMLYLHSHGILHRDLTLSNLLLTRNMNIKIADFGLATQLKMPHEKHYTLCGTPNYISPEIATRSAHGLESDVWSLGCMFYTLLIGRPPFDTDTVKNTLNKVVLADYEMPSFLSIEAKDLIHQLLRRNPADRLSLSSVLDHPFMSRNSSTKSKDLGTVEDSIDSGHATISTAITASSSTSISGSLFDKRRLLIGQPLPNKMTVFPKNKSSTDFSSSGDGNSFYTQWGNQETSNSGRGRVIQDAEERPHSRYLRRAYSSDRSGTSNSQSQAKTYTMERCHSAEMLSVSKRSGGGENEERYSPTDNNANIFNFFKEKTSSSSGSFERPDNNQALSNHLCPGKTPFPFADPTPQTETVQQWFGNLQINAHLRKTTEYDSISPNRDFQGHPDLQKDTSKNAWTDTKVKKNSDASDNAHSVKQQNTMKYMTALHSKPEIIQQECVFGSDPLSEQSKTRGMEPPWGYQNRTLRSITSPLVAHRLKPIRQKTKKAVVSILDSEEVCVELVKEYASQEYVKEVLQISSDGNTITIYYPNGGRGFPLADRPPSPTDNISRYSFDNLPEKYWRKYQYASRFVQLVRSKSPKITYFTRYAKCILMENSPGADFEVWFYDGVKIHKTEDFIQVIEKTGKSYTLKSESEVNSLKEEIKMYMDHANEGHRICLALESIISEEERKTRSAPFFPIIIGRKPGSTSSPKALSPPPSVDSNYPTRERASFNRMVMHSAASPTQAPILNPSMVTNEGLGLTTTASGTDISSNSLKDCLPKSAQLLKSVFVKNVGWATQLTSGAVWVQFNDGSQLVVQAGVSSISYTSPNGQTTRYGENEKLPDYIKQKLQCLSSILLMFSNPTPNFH

[5] = molecular target: Rho-associated protein kinase 2 (Homo sapiens, UniProt O75116)
[6] = molecular target: T4, Signal recognition particle receptor subunit alpha (Homo sapiens, UniProt P08240)
T4 sequence (P08240 whole entry): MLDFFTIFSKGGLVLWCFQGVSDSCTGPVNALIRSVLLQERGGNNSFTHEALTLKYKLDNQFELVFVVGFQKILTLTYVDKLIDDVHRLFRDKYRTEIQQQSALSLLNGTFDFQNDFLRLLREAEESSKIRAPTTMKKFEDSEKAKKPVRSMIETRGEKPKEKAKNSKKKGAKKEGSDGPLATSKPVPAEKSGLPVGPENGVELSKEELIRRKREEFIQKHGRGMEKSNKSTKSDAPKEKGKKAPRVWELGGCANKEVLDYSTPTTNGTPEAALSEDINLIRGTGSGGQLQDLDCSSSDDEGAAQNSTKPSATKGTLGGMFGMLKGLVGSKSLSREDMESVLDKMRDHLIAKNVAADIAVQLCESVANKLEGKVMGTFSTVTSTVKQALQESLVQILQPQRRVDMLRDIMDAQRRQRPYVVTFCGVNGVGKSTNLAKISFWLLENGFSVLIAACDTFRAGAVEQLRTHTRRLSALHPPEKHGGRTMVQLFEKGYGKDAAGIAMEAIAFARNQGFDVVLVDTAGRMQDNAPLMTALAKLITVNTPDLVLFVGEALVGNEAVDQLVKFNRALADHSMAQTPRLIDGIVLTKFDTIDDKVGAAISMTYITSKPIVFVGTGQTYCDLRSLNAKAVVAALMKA

[7] = molecular target: Elongation factor Tu, mitochondrial (Homo sapiens, UniProt P49411)

Measured: Kd
Note: in the data inactive means no Kd found up to 30 µM.

Chain of Rho-associated protein kinase 2 (O75116 whole entry): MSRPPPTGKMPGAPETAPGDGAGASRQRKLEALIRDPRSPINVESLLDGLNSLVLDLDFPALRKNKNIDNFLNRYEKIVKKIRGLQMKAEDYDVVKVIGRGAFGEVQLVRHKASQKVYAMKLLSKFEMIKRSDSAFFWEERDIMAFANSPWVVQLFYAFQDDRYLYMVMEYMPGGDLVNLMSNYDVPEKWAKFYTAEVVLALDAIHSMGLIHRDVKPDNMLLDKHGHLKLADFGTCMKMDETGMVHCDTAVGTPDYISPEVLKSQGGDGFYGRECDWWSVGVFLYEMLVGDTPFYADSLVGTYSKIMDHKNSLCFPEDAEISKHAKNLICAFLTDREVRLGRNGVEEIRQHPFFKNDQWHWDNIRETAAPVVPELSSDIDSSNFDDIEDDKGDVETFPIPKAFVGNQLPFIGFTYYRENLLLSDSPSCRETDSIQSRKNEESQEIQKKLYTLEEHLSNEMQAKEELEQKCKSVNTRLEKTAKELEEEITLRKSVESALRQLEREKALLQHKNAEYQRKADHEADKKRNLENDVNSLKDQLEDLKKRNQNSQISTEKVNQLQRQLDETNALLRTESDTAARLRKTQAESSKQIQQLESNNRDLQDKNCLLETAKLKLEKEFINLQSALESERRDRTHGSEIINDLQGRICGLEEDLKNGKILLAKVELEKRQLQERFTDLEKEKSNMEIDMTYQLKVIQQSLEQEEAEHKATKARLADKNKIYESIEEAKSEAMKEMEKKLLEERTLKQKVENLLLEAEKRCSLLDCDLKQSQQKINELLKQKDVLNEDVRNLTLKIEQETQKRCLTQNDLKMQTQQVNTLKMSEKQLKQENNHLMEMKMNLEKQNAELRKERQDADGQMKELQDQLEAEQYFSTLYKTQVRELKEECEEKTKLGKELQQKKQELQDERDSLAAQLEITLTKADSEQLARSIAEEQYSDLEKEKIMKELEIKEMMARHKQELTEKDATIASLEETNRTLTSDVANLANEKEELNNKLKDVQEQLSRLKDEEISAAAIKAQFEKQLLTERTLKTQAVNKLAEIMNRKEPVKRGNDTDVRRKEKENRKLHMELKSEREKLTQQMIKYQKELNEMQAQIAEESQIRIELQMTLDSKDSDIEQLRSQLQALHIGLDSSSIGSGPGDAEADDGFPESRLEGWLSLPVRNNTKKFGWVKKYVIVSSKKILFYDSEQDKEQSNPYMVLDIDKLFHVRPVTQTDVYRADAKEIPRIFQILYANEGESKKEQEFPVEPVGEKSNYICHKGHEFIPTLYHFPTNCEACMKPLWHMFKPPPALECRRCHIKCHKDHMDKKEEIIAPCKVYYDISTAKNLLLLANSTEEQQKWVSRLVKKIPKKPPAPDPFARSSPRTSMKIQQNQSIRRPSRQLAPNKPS
Chain of Deoxycytidine kinase (P27707 whole entry): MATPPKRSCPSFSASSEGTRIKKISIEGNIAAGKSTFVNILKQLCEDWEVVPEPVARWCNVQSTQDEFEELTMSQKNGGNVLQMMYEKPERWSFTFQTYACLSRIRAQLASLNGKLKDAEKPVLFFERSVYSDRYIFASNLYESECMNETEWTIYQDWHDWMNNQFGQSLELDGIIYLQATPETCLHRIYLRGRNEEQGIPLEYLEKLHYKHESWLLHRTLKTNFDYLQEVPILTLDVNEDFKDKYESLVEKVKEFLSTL

CC(C)Nc1cc(-c2c[nH]c(C(=O)N[C@H](CO)c3cccc(Cl)c3)c2)c(Cl)cn1 [ULIXERTINIB]
inactive: [1] > 30 µM | [2] > 30 µM | [3] > 30 µM | [4] > 30 µM | [5] > 30 µM | [6] > 30 µM | [7] > 30 µM
